We go through 80 compounds from ChEMBL document CHEMBL4513101, “Naegleria gruberi Pathogen Box compounds screening” (2021).

Calls of active or inactive are those of the source. Cut-off read from the data, not from the text of the source: active = inhibition of 80% or more and inactive = less.

The test deals with Naegleria gruberi. In words: microbe, parasite or virus in culture. It counts as functional. The following applies: NEG-M, CONC 10 uM.
Description: Growth inhibiting activity of Naegleria gruberi in vitro
Consider `N#Cc1ccc(-c2ccc(OCC(N)=O)cc2)cc1`, for which the inhibition at 10 µM is 33.5% (not active). On to `COc1ccc(Cn2cnc3c(-c4ccco4)nc(Cl)nc32)cc1`, for which the inhibition at 10 µM is listed as 36.9% (not active). Take `COc1ccc(-c2cnc3ccc(N4CCCC4)nn23)cc1OC`: the inhibition at 10 µM is listed as 51.2% (not active). On to `CCCCc1ccc(C(=O)Nc2nccc3ccccc23)nc1`, for which the inhibition at 10 µM is given as 43.2% (not active). Consider `COc1ccc(C(=N)N)cc1-c1cn(-c2ccc(C(=N)N)cc2)nn1`, for which the inhibition at 10 µM is 22.8% (not active). For the compound `CNC(=O)c1cc(S(=O)(=O)N2CCN(c3ccccn3)CC2)cs1`, the inhibition at 10 µM is 32.9% (not active).

Regarding `Nc1nc2cc(-c3cncc(Oc4ccc(F)cc4)c3)ccc2[nH]1`, the inhibition at 10 µM is 35.5% (not active). In the case of `Cc1ccc2nc(C)c(-c3ccn(Cc4ccccc4)n3)n2c1` it was 9.5% (not active); in that of `Cc1nc(-c2cccc(NCc3ccccc3)c2)[nH]c1C`, 8.1% (not active). For the compound `COc1cc(Br)cc2cc(C(=O)Nc3cccc(C(F)(F)F)c3)c(=O)oc12`, the inhibition at 10 µM was 21% (not active). In the case of `CC1=NN(c2nc3ccccc3s2)C(=O)C1Cc1cccc2ccccc12` (stereo not given), the inhibition at 10 µM is listed as 57.2% (not active). As to `O=C(Nc1cccc(-c2ccc(NCCCN3CCCC3)nc2)c1)c1ccccc1`, the inhibition at 10 µM is recorded as 8.2% (not active). Turning to `COc1ccc(-c2nc(-c3cccc(NC(=O)Cc4ccc(F)cc4)c3)no2)cc1OC`, the inhibition at 10 µM is recorded as 35.4% (not active). `Cc1ccc(S(=O)(=O)n2cc(-c3ccnc(N)c3)c3cc(Br)cnc32)cc1`: the inhibition at 10 µM is listed as 53.9% (not active).

Turning to `CCOC(=O)c1noc(N)c1-c1ccccc1`, the inhibition at 10 µM is 0% (not active). In the case of `CC(C)C(C(=O)Nc1ccc(S(=O)(=O)N(C)C)cc1)c1ccc(Cl)cc1` (stereo not given) it was 41% (not active); in that of `Cc1ccccc1CN1CCC(O)(c2ccc(Cl)c(C(F)(F)F)c2)CC1`, 47.4% (not active); in that of `CC1CS(=O)(=O)CCN1/N=C/c1ccc([N+](=O)[O-])o1` (stereo not given) [NIFURTIMOX], 11.1% (not active).

Turning to `CC(C)(C)C(O)C(Oc1ccc(-c2ccccc2)cc1)n1cncn1` (stereo not given) [BITERTANOL], the inhibition at 10 µM was 81% (active). Turning to `c1ccc(C[C@@H]2CN(c3nccc(Oc4ccc(-n5ccnc5)cc4)n3)CCN2)cc1`, the inhibition at 10 µM is listed as 26.4% (not active).

`CC(=O)Nc1ccc(NC(=O)c2cc(-c3cc(Cl)ccc3O)n[nH]2)cc1`: the inhibition at 10 µM was 8.8% (not active). Turning to `CN1CCN(c2nccc3nc(-c4ccc(F)c(F)c4)[nH]c23)CC1`, the inhibition at 10 µM is reported as 35% (not active).

Take `Cc1cc(Nc2ccc(C(F)(F)F)cc2)n2ccnc2n1`: the inhibition at 10 µM is 0% (not active). Take `CC(C)=CCC/C(C)=C\CNCCNC1C2CC3CC(C2)CC1C3` (stereo not given): the inhibition at 10 µM is 20.2% (not active). For the compound `CC(C)(C)n1nc(Cc2ccc(F)c(Cl)c2)c2c(N)ncnc21`, the inhibition at 10 µM is 32% (not active).

On to `O=C(C1CCN(c2nnc(-n3cccc3)s2)CC1)N1CCC(Cc2ccccc2)CC1`, for which the inhibition at 10 µM was 31.1% (not active). With `CC(C)NCC(=O)Nc1cccc(C(=O)Nc2cccc(C(F)(F)F)c2)c1`, the inhibition at 10 µM is 4.8% (not active). In the case of `COC(=O)c1c(NC(=O)c2c(F)c(F)c(F)c(F)c2F)sc2c1CCCCC2`, the inhibition at 10 µM is listed as 30.9% (not active).

As for `O=C(c1ccc(F)cc1)N(CCNc1ccccc1)c1ccccc1`, the inhibition at 10 µM was 24.1% (not active). Take `Nc1cccnc1Nc1ccc(Cl)cc1`: the inhibition at 10 µM was 4.1% (not active). In the case of `CC(C)C(NC(=O)Cc1cccc2ccccc12)C(=O)Nc1cccc(C#N)c1` (stereo not given), the inhibition at 10 µM is listed as 37.5% (not active). With `CN1CCN(CCCOc2ncc(Nc3ncc(-c4ccc(C(F)(F)F)c(F)c4)nc3C(N)=O)cn2)CC1`, the inhibition at 10 µM is 12.9% (not active). Turning to `CC(=O)NCC1CN(c2ccc(-c3ccc(CO)cc3)c(F)c2)C(=O)O1` (stereo not given), the inhibition at 10 µM was 35.1% (not active). For the compound `Cc1nn(Cc2ccccc2)c(Cl)c1C(=O)NC1CCCCCC1`, the inhibition at 10 µM is 36.1% (not active). On to `Cc1ccc(NC(=O)CC2COc3ccccc3O2)cc1Cl` (stereo not given), for which the inhibition at 10 µM was 79.9% (not active). In the case of `Cc1nnc(NCc2cccc(Cl)c2)c2ccccc12` it was 38.4% (not active); in that of `CC(C)(C)OC(=O)N1CCN(c2nccc(-c3ccc(-c4ccc(Cl)cc4)s3)n2)CC1`, 17% (not active). For the compound `CCCn1nnc(NC(=O)COc2ccc(C3CCCCC3)cc2)n1`, the inhibition at 10 µM is 33% (not active). Consider `COC(=O)c1c(NC(=O)c2cc3ccccc3oc2=O)sc2c1CCN(Cc1ccccc1)C2`, for which the inhibition at 10 µM is given as 17.2% (not active).

For `c1ccc(Oc2ccc(-c3cncc(-c4ccc5[nH]ccc5c4)n3)cc2)cc1`, the inhibition at 10 µM is listed as 11.4% (not active). In the case of `CCCCOC(=O)Nc1cc2nc(C3CCCCC3)[nH]c2cc1N1CCCC1` it was 64.3% (not active). As to `CC(C)(C)c1cc(C(=O)N2CCN(c3nccnc3C#N)CC2)n(Cc2ccccc2)n1`, the inhibition at 10 µM is recorded as 31.6% (not active).

As to `O=C(NCCc1ccn(-c2ccccc2)n1)C1CCCCC1`, the inhibition at 10 µM is 6.2% (not active). With `COc1cc(C2=NCCN2)cc2cc(-c3ccc(C4=NCCN4)cc3)oc12`, the inhibition at 10 µM is listed as 11.2% (not active).

As to `CCn1ncc2c(NC3CCOCC3)c(CNC(=O)c3ccnn3C)c(C)nc21`, the inhibition at 10 µM is listed as 0.8% (not active). As for `Cc1cc2nc(NC(=O)C(C)(C)C)nc(Cl)c2n1Cc1ccc(Cl)cc1`, the inhibition at 10 µM was 43% (not active). Turning to `Nc1nc(N)c2c3c(sc2n1)CN(Cc1ccccc1)CC3`, the inhibition at 10 µM was 2.1% (not active).

Turning to `CC1CC1C(=O)NC1CCN(CC2(c3ccccc3)CCCCC2)CC1` (stereo not given), the inhibition at 10 µM is reported as 43.8% (not active). For `CN1CCN(S(=O)(=O)c2ccc(-c3ccc4c(Nc5ccc6nn[nH]c6c5)ccnc4c3)cc2)CC1`, the inhibition at 10 µM was 10.8% (not active).

As to `NCC(c1cccs1)S(=O)(=O)c1ccccc1` (stereo not given), the inhibition at 10 µM is given as 7.1% (not active). Consider `CC(=O)Nc1ccc(-c2noc(CC3CCCN(Cc4cccc(F)c4C)C3)n2)cc1` (stereo not given), for which the inhibition at 10 µM is 37.2% (not active).

As to `CCS(=O)(=O)N(Cc1ccco1)Cc1cc2ccc(C)cc2nc1O`, the inhibition at 10 µM is 0% (not active). `O=C(CN1CCOCC1)Nc1ccc2ncnc(Nc3ccc(OCc4cccc(F)c4)c(Cl)c3)c2c1`: the inhibition at 10 µM is recorded as 17% (not active). For `CC(C)(C(=O)Nc1ccc(F)cc1)n1cc(-c2ccccc2F)cn1` the value was 30.2% (not active); for `CC(C)(C)OC(=O)N1CCC(Cn2nc(-c3cnc4ccccc4c3)c3c(N)ncnc32)CC1`, 57.8% (not active); for `c1ccc(Oc2ccc(-c3cc(N4CCOCC4)[nH]n3)cc2)cc1`, 22.4% (not active). Consider `Nc1ncc(-c2ccc(C(F)(F)F)nc2)cc1-c1ccc(C(F)(F)F)nc1`, for which the inhibition at 10 µM is on record as 16.5% (not active). With `O=[N+]([O-])c1cn2c(n1)OC[C@@H](OCc1ccc(OC(F)(F)F)cc1)C2` [PRETOMANID], the inhibition at 10 µM is on record as 16.1% (not active). Consider `Nc1ncnc2c1ncn2C[C@@H](O)[C@@H](O)C(=O)O` [ERITADENINE], for which the inhibition at 10 µM is 36.3% (not active).

For the compound `O=C1O[C@@H](CO)CN1c1cc(F)c(C2=CCN(Cc3ccccc3)CC2)c(F)c1`, the inhibition at 10 µM is listed as 8.3% (not active). For `CCOc1ccc(-c2nc(NC(=O)CS(=O)(=O)c3ccccc3)sc2C)cc1` the value was 50.9% (not active).

Turning to `CS(=O)(=O)N1CCC(Cn2nc(Cc3cccc4ccccc34)c3c(N)ncnc32)CC1`, the inhibition at 10 µM is listed as 30.6% (not active). Turning to `COc1cc(C2=NCCN2)ccc1-c1cn(-c2cccc(C3=NCCN3)c2)nn1`, the inhibition at 10 µM is 20.1% (not active). For `CCc1nc2ccc(Cl)cn2c1C(=O)NCc1ccc(N2CCC(c3ccc(OC(F)(F)F)cc3)CC2)cc1` [TELACEBEC] the value was 42.4% (not active); for `CCc1ccc([C@@H]2C[C@H](C(F)(F)F)n3ncc(C(=O)NCc4ccc(OC)cc4)c3N2)cc1`, 29% (not active). Regarding `CO[C@@H]1CN(c2ccc(C#CC3(O)CN4CCC3CC4)c(Cc3ccccc3)n2)C[C@H]1O` (stereo not given in full), the inhibition at 10 µM is listed as 0% (not active). As to `CCC(Sc1nc2ccccc2o1)C(=O)Nc1nccs1` (stereo not given), the inhibition at 10 µM is given as 44.3% (not active).

With `FC(F)(F)c1cc(NCCc2ccccc2)nc(-c2ccccn2)n1`, the inhibition at 10 µM is given as 24.6% (not active).

`CN1CCN(c2nccc3[nH]c(-c4cccc(F)c4)cc23)CC1`: the inhibition at 10 µM is 0% (not active). On to `COc1cccc(-n2nnnc2S(C)(=O)=O)c1`, for which the inhibition at 10 µM is 78.8% (not active). As for `CCC(Sc1nc2ccccc2o1)C(=O)Nc1nnc(C)s1` (stereo not given), the inhibition at 10 µM is on record as 8.4% (not active). On to `C[C@]1(COc2ccc(N3CCC(Oc4ccc(OC(F)(F)F)cc4)CC3)cc2)Cn2cc([N+](=O)[O-])nc2O1`, for which the inhibition at 10 µM was 94.1% (active). Consider `NCC(=O)N1CCn2c(nc(-c3ccccc3)c2Nc2ccc3c(c2)OCO3)C1`, for which the inhibition at 10 µM is 8.3% (not active).

In the case of `Cn1ccnc1CNCCS(=O)(=O)c1cccc(Nc2ccc(-c3cccc(F)c3)cn2)c1`, the inhibition at 10 µM was 26.5% (not active).

Consider `O=C(Nc1ccc(F)c(-c2nc3cc(-c4ccccc4)cnc3[nH]2)c1)N1CCCC1`, for which the inhibition at 10 µM is 49.5% (not active). `COc1ccc(CN2CCOc3ccc(C(C)(O)CN(C)C)cc3C2)cc1C` (stereo not given): the inhibition at 10 µM is given as 26.3% (not active). Consider `CN(C(=O)c1cc2c(-c3cncnc3)cccc2[nH]1)c1ccccc1`, for which the inhibition at 10 µM is listed as 27.7% (not active).

`O=C1[C@@H](Oc2ccccc2)[C@@H](c2ccc(Cl)cc2)N1CCn1cnc2c(NCc3ccccc3)ncnc21`: the inhibition at 10 µM was 0% (not active). As for `CCOc1ccccc1C(=O)Nc1cccc(-c2nc3ncccn3c2C)c1`, the inhibition at 10 µM is reported as 34.5% (not active). Consider `Cc1cc(NCCc2ccccc2)nc(NC(=N)Nc2ccc(Cl)cc2)n1`, for which the inhibition at 10 µM is 19.6% (not active).

For orientation: inhibition means the change of the read-out against control, counted positive when it falls.
